Assay [1] has as its system HCV replicon cells (Huh7). Kind of assay: HCV replicon assay (HCV EC50 determination, luciferase readout). It is filed as cell-based. As to conditions: for inhibition at 250 µM: Concentration tested 250 micromolar. On the procedure:
Replicon cells were seeded in 96-well plates at a density of 8×10^3 cells per well in 100 μL of culture medium, excluding Geneticin. Compound was serially diluted in 100% DMSO and then added to the cells at a 1:200 dilution, achieving a final concentration of 0.5% DMSO and a total volume of 200 μL. Plates were incubated at 37° C. for 3 days, after which culture medium was removed and cells were lysed in lysis buffer provided by Promega's luciferase assay system. Following the manufacturer's instruction, 100 μL of luciferase substrate was added to the lysed cells and luciferase activity was measured in a TopCount luminometer.
In general terms: Replicon systems follow genome replication, usually without infectious particles.

The next assay has as its target HCV NS5b polymerase (Hepatitis C virus genotype 1b, UniProt Q9WMX2). Nature of the assay: NS5b polymerase assay (HCV IC50 determination). The format is biochemical. To be noted: Concentration tested 200 micromolar. On the procedure:
Assay Protocol: NS5b polymerase assay (40 μL) was assembled by adding 28 μL polymerase mixture (final concentration: 50 mM Tris-HCl at pH 7.5, 10 mM KCL, 5 mM MgCl2, 1 mM DTT, 10 mM EDTA, 4 ng/μL of RNA template, and 75 nM HCV ? 21 NS5b polymerase) to assay plates followed by 4 μL of compound dilution. The polymerase and compound were pre-incubated at 35° C. for 10 minute before the addition of 8 μL of nucleotide substrate mixture (33P- ? -labeled competing nucleotide at KM and 0.5 mM of the remaining three nucleotides). The assay plates were covered and incubated at 35° C. for 90 min. Reactions were then filtered through 96-well DEAE-81 filter plates via vacuum. The filter plates were then washed under vacuum with multiple volumes of 0.125 M NaHPO4, water, and ethanol to remove unincorporated label. Plates were then counted on TopCount to assess the level of product synthesis over background controls. The IC50 value was determined using Prism fitting program.

What is called inhibition is the change of the read-out against control, counted positive when it falls. Read a low inhibition as little suppression. As for `CCCCOC(=O)[C@H](C)NP(=O)(CO[C@@H]1C[C@@H](O)[C@H](n2cnc(C(N)=O)n2)O1)N[C@@H](C)C(=O)OCCCC` [Compound 9.5, Bis (Alanine-n-butyl ester) phosphonamidate pro drug of [5-(3-carbamoyl-[1,2,4]triazol-1-yl)-4-hydroxy-tetrahydro-furan-2-yloxymethyl]-phosphonic acid], the inhibition at 50 µM in assay [1] (Hepatitis C virus, Huh-7, Concentration tested 50 micromolar) came out at 1.1%. For `CCCCOC(=O)[C@H](C)NP(=O)(CO[C@H]1O[C@@H](n2ccc(N)cc2=O)[C@H](O)[C@@H]1O)N[C@@H](C)C(=O)OCCCC` [Compound 32.5], the “% Inhibition of replicon” value in assay [1] (Concentration tested 500 micromolar) is reported as 37.5%. Consider `NC(=O)c1ncn([C@@H]2O[C@H](OCP(=O)(O)OP(=O)(O)OP(=O)(O)O)C[C@H]2O)n1` [Compound 9.4, Diphosphate of [5-(3-Carbamoyl-[1,2,4]triazol-1-yl)-4-hydroxy-tetrahydro-furan-2-yloxymethyl]-phosphonic acid], for which at 200 µM the inhibition against HCV NS5b polymerase was 65.5%.

On to `C[C@]1(OCP(=O)(O)O)O[C@@H](n2ccc(=O)[nH]c2=O)[C@H](O)[C@@H]1O` [Compound 32.4, ((2R,3S,4R,5R)-5-(2,4-dioxo-3,4-dihydropyrimidin-1(2H)-yl)-3,4-dihydroxy-2-methyl-tetrahydrofuran-2-yloxy)methylphosphonic acid], for which, in assay [1] (Hepatitis C virus, Huh-7), the inhibition at 250 µM amounted to 14.8%.

In the case of `Nc1nc2c(ncn2C2OC(OCP(=O)(O)O)CC2O)c(=O)[nH]1` (stereo not drawn) [Compound 5.2, [5-(2-Amino-6-oxo-1,6-dihydro-purin-9-yl)-4-hydroxy-tetrahydro-furan-2-yloxymethyl]-phosphonic acid], in assay [1] (Hepatitis C virus, Huh-7), at 250 µM the inhibition was 27.2%. Consider `NC(=O)c1ncn(C2OC(OCP(=O)(O)O)CC2O)n1` (stereo not drawn) [Compound 8.3, [5-(3-Carbamoyl-[1,2,4]triazol-1-yl)-4-hydroxy-tetrahydro-furan-2-yloxymethyl]-phosphonic acid], for which testing at 250 µM in assay [1] (Hepatitis C virus, Huh-7) gave an inhibition of 18.5%.

Values taken from US7842672B2, “Phosphonate inhibitors of HCV” (Gilead Sciences, Inc., priority 2006, dated 2010).
